Measured values published in patent publication EP4640240A1, “PEPTIDE-BASED RADIOPHARMACEUTICALS FOR NON-INVASIVE IMAGING OF THE FUNCTIONAL LIVER RESERVE” (Medizinische Universität Innsbruck, priority 2024, dated 2025).
Like-named read-outs stand apart in the source and are kept apart here.

Legend:
[1] = Stability in human blood serum (radio-HPLC); type: in vitro ADME; conditions: 37 °C
Protocol: Ligand stability in human blood serum (n = 2) and PBS (pH = 6.5) (n = 1) was determined for different time points (2 min, 30 min, 60 min, 120 min). Therefore, approx. 5 MBq of radioligand was added to 1 mL of fresh human serum at 37 °C or PBS at rt. At each given time point 100 µL of the mixture were transferred to a 1.5 mL Eppendorf tube containing 100 µL of acetonitrile. The vial was vortexed and centrifuged for 2 min at 14,000 1/min before 100 µL of the supernatant were diluted with 200 µL of water and injected into analytical radio-HPLC. The PBS solution was directly injected into the radio-HPLC. Ligand stability was determined by integrating the areas of the signals in the radio chromatogram in relation to the signal of the intact ligand.

[2] = Protein binding in human serum (MicroSpin G-50 columns); type: in vitro ADME; conditions: fresh human serum, 37 °C, n=3
Protocol: Protein binding was determined for different time points (2 min, 30 min, 60 min, 120 min) in triplicates using Sephadex MicroSpin G-50 columns (GE-Healthcare, Chicago, Illinois, USA). The columns were spun initially at 20,000 rcf for 1 min to remove the storage buffer. Then approx. 5 MBq of radioligand was added to 1 mL of fresh human serum and incubated at 37 °C. At each given timepoint 25 µL of the mixture was loaded on to the column, which was then spun at 20,000 rcf for 1 min. The activity content on the column (free radioligand) and in the filtrate (protein bound fraction) was quantified in a γ-counter.

[3] = Partition coefficient logD (n-octanol/PBS); type: physicochemical; conditions: n=6
Protocol: For determination of logarithmic partition coefficients (logD) n-Octanol (500 µL) and PBS (500 µL) were pipetted into eight 1.5 mL Protein Low-Bind Eppendorf tubes followed by addition of 300 kBq of labelled compound. The vials were vortexed for 5 min at 1,500 1/min and then centrifuged for 5 min at 20,000 rcf (Eppendorf Centrifuge 5424). Aliquots of 100 µL were taken out of each phase and the amount of activity was quantified in a γ-counter (Perkin Elmer 2480 Wizard2 3"; Waltham, Massachusetts, USA).

[4] = Biodistribution studies in BALB/c mice; type: in vivo; conditions: for tissue uptake at 10 min / tissue uptake at 0.5 h / tissue uptake at 1 h: female, mouse, iv, total radioactivity, healthy BALB/c mice, 0.1 nmol i.v.; for tissue uptake at 10 min: 10 min p.i.; for tissue uptake at 0.5 h: 30 min p.i.; for tissue uptake at 1 h: 60 min p.i.
Protocol: For biodistribution studies 6-week-old female BALB/c mice (n=3) were injected with 0.1 nmol (100 µL, approx. 1 MBq) of labelled compound via the lateral tail vein and sacrificed after 10, 30, or 60 min by cervical dislocation. The mice were dissected, blood and organs (spleen, pancreas, stomach, intestine, liver, kidney, heart, lung, muscle and bone) were weighed and their activity measured in a γ-counter. For blocking experiments, mice were co-injected with 27.7 µmοl N-acetylgalactose.

[5] = BALB/c mice, comparison with ^99mTc-GSA
[6] = Blood, read-out: Biodistribution data, Blood
[7] = Femur, read-out: Biodistribution data, Femur
[8] = Heart, read-out: Biodistribution data, Heart
[9] = Intestine, read-out: Biodistribution data, Intestine
[10] = Kidneys, read-out: Biodistribution data, Kidneys
[11] = Liver, read-out: Biodistribution data, Liver
[12] = Lung, read-out: Biodistribution data, Lung
[13] = Muscle, read-out: Biodistribution data, Muscle
[14] = Pancreas, read-out: Biodistribution data, Pancreas
[15] = Spleen, read-out: Biodistribution data, Spleen
[16] = Stomach, read-out: Biodistribution data, Stomach

NC(=O)CNC(=O)CNC(=O)[C@H](CCCCNC(=O)CCCCc1cn(C2O[C@H](CO)[C@H](O)[C@H](O)[C@H]2O)nn1)NC(=O)CNC(=O)CNC(=O)[C@H](CCCCNC(=O)CCCCc1cn(C2O[C@H](CO)[C@H](O)[C@H](O)[C@H]2O)nn1)NC(=O)CNC(=O)CNC(=O)[C@H](CCCCNC(=O)CCCCc1cn(C2O[C@H](CO)[C@H](O)[C@H](O)[C@H]2O)nn1)NC(=O)CNC(=O)CNC(=O)[C@H](CCCCNC(=O)CCCCc1cn(C2O[C@H](CO)[C@H](O)[C@H](O)[C@H]2O)nn1)NC(=O)CNC(=O)CNC(=O)[C@H](CCCCNC(=O)CCCCc1cn(C2O[C@H](CO)[C@H](O)[C@H](O)[C@H]2O)nn1)NC(=O)CNC(=O)CNC(=O)[C@H](CCCCNC(=O)CCCCc1cn(C2O[C@H](CO)[C@H](O)[C@H](O)[C@H]2O)nn1)NC(=O)CNC(=O)CNC(=O)[C@H](CCCCNC(=O)CCCCc1cn(C2O[C@H](CO)[C@H](O)[C@H](O)[C@H]2O)nn1)NC(=O)CNC(=O)CNC(=O)[C@H](CCCCNC(=O)CCCCc1cn(C2O[C@H](CO)[C@H](O)[C@H](O)[C@H]2O)nn1)NC(=O)CNC(=O)CNC(=O)[C@H](CCCCNC(=O)CCCCc1cn(C2O[C@H](CO)[C@H](O)[C@H](O)[C@H]2O)nn1)NC(=O)CCCNC(=O)CC[C@H](C(=O)O)N1CCN(CC(=O)O)CCN(CC(=O)O)CC1 (some centres unmarked) [[68Ga]Ga-NonaLysan, metal not drawn]
remaining at 2 min ([1]; 2 min, n=2, read-out: Serum stability (% of intact ligand)): 99.5 ± 0.1% | remaining at 0.5 h ([1]; 30 min, n=2, read-out: Serum stability (% of intact ligand)): 99.5 ± 0.1% | Serum stability (% of intact ligand) ([1]; 60 min, n=2): 99.5 ± 0.1% | remaining at 2 h ([1]; 120 min, n=2, read-out: Serum stability (% of intact ligand)): 99.6% | fraction unbound ([2]; 2 min): 0.847 | fraction unbound ([2]; 30 min): 0.717 | fraction unbound ([2]; 60 min): 0.737 | fraction unbound ([2]; 120 min): 0.785 | logD [3]: -4.06 ± 0.09 | activity accumulation in the liver (in words) [4, 5]: outperforms the accumulation in the liver found for the gold standard ^99mTc-GSA | activity concentration in the intestine (in words) [4, 5]: activity concentration is lower as found for ^99mTc-GSA | tissue uptake at 10 min [4, 6]: 0.43 ± 0.03 %ID/g | tissue uptake at 0.5 h [4, 6]: 0.15 ± 0.04 %ID/g | tissue uptake at 1 h [4, 6]: 0.22 ± 0.05 %ID/g | tissue uptake at 10 min [4, 7]: 0.26 ± 0.02 %ID/g | tissue uptake at 0.5 h [4, 7]: 0.26 ± 0.08 %ID/g | tissue uptake at 1 h [4, 7]: 0.23 ± 0.01 %ID/g | tissue uptake at 10 min [4, 8]: 0.44 ± 0.04 %ID/g | tissue uptake at 0.5 h [4, 8]: 0.44 ± 0.04 %ID/g | tissue uptake at 1 h [4, 8]: 0.52 ± 0.07 %ID/g | tissue uptake at 10 min [4, 9]: 0.77 ± 0.17 %ID/g | tissue uptake at 0.5 h [4, 9]: 5.61 ± 0.22 %ID/g | tissue uptake at 1 h [4, 9]: 7.91 ± 0.49 %ID/g | tissue uptake at 10 min [4, 10]: 1.16 ± 0.12 %ID/g | tissue uptake at 0.5 h [4, 10]: 0.83 ± 0.03 %ID/g | tissue uptake at 1 h [4, 10]: 0.99 ± 0.15 %ID/g | tissue uptake at 10 min [4, 11]: 71.23 ± 0.43 %ID/g | tissue uptake at 0.5 h [4, 11]: 79.6 ± 7.96 %ID/g | tissue uptake at 1 h [4, 11]: 69.6 ± 0.98 %ID/g | tissue uptake at 10 min [4, 12]: 0.85 ± 0.1 %ID/g | tissue uptake at 0.5 h [4, 12]: 0.7 ± 0.08 %ID/g | tissue uptake at 1 h [4, 12]: 0.92 ± 0.1 %ID/g | tissue uptake at 10 min [4, 13]: 0.61 ± 0.07 %ID/g | tissue uptake at 0.5 h [4, 13]: 0.66 ± 0.03 %ID/g | tissue uptake at 1 h [4, 13]: 0.59 ± 0.09 %ID/g | tissue uptake at 10 min [4, 14]: 0.75 ± 0.07 %ID/g | tissue uptake at 0.5 h [4, 14]: 0.91 ± 0.05 %ID/g | tissue uptake at 1 h [4, 14]: 1.16 ± 0.19 %ID/g | tissue uptake at 10 min [4, 15]: 0.57 ± 0.16 %ID/g | tissue uptake at 0.5 h [4, 15]: 0.17 ± 0.03 %ID/g | tissue uptake at 1 h [4, 15]: 0.49 ± 0.03 %ID/g | tissue uptake at 10 min [4, 16]: 0.73 ± 0.16 %ID/g | tissue uptake at 0.5 h [4, 16]: 1.15 ± 0.44 %ID/g | tissue uptake at 1 h [4, 16]: 1.78 ± 0.98 %ID/g
